For data set [1] the following is noted: 17- versus 19-allylamino derivative of herbimycin A; cited from earlier work.
Data set [2] deals with OVA-peptide pulsed EL4 cells. In words: 51Cr release assay with effector cells from immunized mice. It is filed as cell-based, C57BL/6 mice. The note with it: mice immunized once or twice; OVA-primed EL-4 target cells. As for the experimental part: Preparation of hsp70 and/or peptide for use in immunization. Approximately 15 μg hsp70 and 12 μg OVA-BiP were mixed, on ice, to a final volume of 10 μL in Buffer Y (to produce a final concentration of 21.5 μM hsp70, 0.5 mM OVA-BiP, 20 mM HEPES pH 7.0, 150 mM KCl, 10 MM (NH4)2SO4, 2 mM MgCl2 and 2 mM MgADP, pH 7.0). The mixture was incubated for 30 minutes at 37° C. and was used for in vivo immunizations. Similar incubations were carried out with (i) 5 μl TiterMax adjuvant (Vaxcell, Norcross, Ga.) and 12 μg OVA-BiP (ii) 5 μl TiterMax and 5 μg OVA peptide or (iii) 12 μg OVA-BiP alone.
Preparation of cells for chromium release assay. […]
Chromium release assay. […] Supernatants were harvested and radioactivitiy released by cytotoxic activity was measured in a gamma counter. The percent specific lysis was calculated as 100×[(cpm release by CTL−cpm spontaneously released)/(cpm maximal release−cpm spontaneously released)]. Maximal release was determined by adding 1% NP-40 to lyse all cells. Spontaneous release of all target in the absence of effector cells (measured in a culture of target cells (in the absence of effector cells) maintained in parallel for the duration of the assay) was less than 20% of the maximal release.

For data set [3], the target named is T1, gp96 in the presence of herbimycin A (Mus musculus, UniProt P08113).
T1 construct: The mouse cDNA encoding mature gp96 (i.e., wherein the endoplasmic reticulum signal peptide has been removed) was incorporated into the pET 11 a expression vector; made in house; host or cells: Escherichia coli BL21 (pET11gp96)
T1 sequence (P08113 22-802): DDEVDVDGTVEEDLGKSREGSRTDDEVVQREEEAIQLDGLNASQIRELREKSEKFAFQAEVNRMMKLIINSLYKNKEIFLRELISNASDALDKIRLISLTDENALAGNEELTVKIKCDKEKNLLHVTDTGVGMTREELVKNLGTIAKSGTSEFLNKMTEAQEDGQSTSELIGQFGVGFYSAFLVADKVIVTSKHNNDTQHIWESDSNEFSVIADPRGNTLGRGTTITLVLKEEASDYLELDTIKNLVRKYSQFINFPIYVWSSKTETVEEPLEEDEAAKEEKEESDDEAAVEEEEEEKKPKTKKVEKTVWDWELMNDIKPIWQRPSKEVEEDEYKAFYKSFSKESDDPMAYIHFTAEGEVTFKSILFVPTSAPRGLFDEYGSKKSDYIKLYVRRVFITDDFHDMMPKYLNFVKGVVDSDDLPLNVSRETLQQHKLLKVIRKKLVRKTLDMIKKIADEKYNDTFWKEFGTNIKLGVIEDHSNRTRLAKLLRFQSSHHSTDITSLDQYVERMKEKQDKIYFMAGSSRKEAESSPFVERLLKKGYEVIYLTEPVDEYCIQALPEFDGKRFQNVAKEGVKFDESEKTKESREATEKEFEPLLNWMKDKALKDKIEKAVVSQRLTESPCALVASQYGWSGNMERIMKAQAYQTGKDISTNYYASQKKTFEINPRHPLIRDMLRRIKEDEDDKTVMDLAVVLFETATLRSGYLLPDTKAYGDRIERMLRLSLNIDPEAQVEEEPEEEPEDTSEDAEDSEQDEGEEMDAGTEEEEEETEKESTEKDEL
Nature of the data set: Affinity panning of phage display heptapeptide library on gp96 in the presence of herbimycin A. Conditions: TWEEN 20. It is filed as binding. As for the experimental part: Preparation of a gp96 expression vector. The mouse cDNA encoding mature gp96 (i.e., wherein the endoplasmic reticulum signal peptide has been removed) was incorporated into the pET 11 a expression vector (Novagen) as follows. Gp96 cDNA insert was prepared by polymerase chain reaction (PCR) of a pRc/CMV clone containing the cDNA using the following oligonucleotide primers: […]
Expression of gp96. pET11gp96 was transformed into BL21 Escherichia coli cells, and plated on LB plates containing ampicillin (50 μg/ml). One of the resulting colonies was used to inoculate a 20 ml overnight culture of 2×TY medium containing ampicillin (150 μg/ml). The following day, the resulting culture was spun down and the harvested bacteria were resuspended in 1 ml of fresh medium. Two one liter cultures were then each inoculated with 0.5 ml of the harvested cells and allowed to grow at 37° C. until the optical density, measured at 600 nm, was 0.5. Then, IPTG was added to a concentration of 1 mM and the cells were cultured for another 3 hours before being harvested by centrifugation. The resulting cell pellet was resuspended in 20 ml of 50 mM HEPES pH 7.5, 50 mM KCl, 5 mM MgAcetate, 20% sucrose and 1 mM PMSF. Cell extracts were prepared by pressure shearing in a French Press. The lysates were then spun at 100,000×g for 1.5 hours and the supernatant, which constituted crude gp96 extract, was collected.
Purification of gp96. The following steps were all performed at 4° C. A 12.5 cm×3.2 cm column of DE52 resin (Whatman) was equilibrated in a solution of 50 mM MOPS pH 7.4, 10 mM NaCl, 5 mM MgAcetate (hereafter, “Buffer A”). The crude gp96 extract was diluted 2-fold and immediately loaded onto the column at a flow rate of 2 ml/min. Elution from the column was achieved using a gradient of a solution of 50 mM MOPS pH 7.4, 1M NaCl, 5 mM MgAcetate (hereafter, “Buffer B”) from 0% to 100% Buffer B over 1000 ml. The elution profile was examined by subjecting fractions collected from the column to SDS-PAGE analysis. Fractions containing gp96 were pooled and diluted 2-fold with cold water, and were immediately run onto the next column (see below).
A 10 cm×1 cm column of hydroxyapatite (BioRad) was washed with 100 ml 0.5 M K2HPO4, 50 mM KCl pH 7.4 and then equilibrated with 10 mM K2HPO4, 50 mM KCl pH 7.4. The pooled diluted fractions from the DE52 column were loaded onto this column at a flow rate of 1 ml/min. The gp96 protein was eluted in a gradient of 10-500 mM K2HPO4 over 800 ml. Fractions containing gp96 were pooled and loaded onto the phenylsepharose column described below.
A 9 cm×3 cm column of phenylsepharose (Pharmacia) was equilibrated with 500 mM NaCl, 50 mM MOPS pH 7.4. The pooled fractions containing gp96 from the hydroxyapatite were loaded onto this column at 1 ml/min and the gp96 was eluted in a gradient of 500-0 mM NaCl over 800 ml. The gp96 containing fractions collected from the column were identified by SDS-PAGE, pooled, and concentrated.
The gp96 was then loaded onto a Hi Load 26/60 Superdex-200 column (Pharmacia) equilibrated with 100 mM NaCl, 5 mM MgAcetate, 50 mM MOPS pH 7.5, 3 ml fractions were collected, and the fractions containing the most pure gp96 (as identified by SDS PAGE using a 12 percent reducing gel) and pooled. To the pooled fractions, glycerol was added to 10% (v/v), and then the fractions were concentrated to 21 mg/ml on a Centricon-50 concentrator (Amicon), frozen using liquid nitrogen, and stored at −80° C.
Affinity panning. The Ph.D. Phage Display Library Kit (New England BioLabs, Beverly, Mass.), was used for affinity panning. For each panning experiment, a well of a 96-well polystyrene microtiter plate (each well having a 6 mm diameter) was filled with 150 μl of a solution of 200 μg/ml of gp96 in 0.1 M NaHCO3 pH 8.3. If herbimycin A was to be included in the experiment, 1 μl of 10 mg/ml herbimycin A (GIBCO) in DMSO was added to each well, corresponding to a 50-fold molar excess relative to gp96. […]

The target of data set [4] is T1, gp96 in the presence of herbimycin A. Conditions: expected frequency for comparison with % actual, cited from earlier work.
In data set [5] the test system is EG7 cells. In words: EG7 tumor cell challenge after immunization. The format is in vivo, C57BL/6 mice. Conditions: peptide alone, without TiterMax or hsp70, eight mice per group. As for the experimental part:
C57BL/6 mice, 8-10 weeks old, were immunized intradermally with one of the following (eight mice in each group): (a)5 μl TiterMax and 5 μg OVA peptide; (b) 15 μg hsp70 and 5 μg OVA peptide; (c) 5 μl TiterMax and […] (OVA-BiP); (d) 15 μg hsp70 and 12 μg OVA-BiP; (e) control (four animals only in this group); (f) 5 μg OVA peptide; or (g) 12 μg OVA-BiP. The mice then were injected with 4×10^6 EG7 cells. Tumor size was evaluated over time by measuring two diameters, the greatest diameter and the diameter perpendicular to the greatest diameter, and then calculating the average diameter. The results are shown in FIGS. 8A-G (corresponding to groups a-g, as set forth above).

Setting [6] is: Table XII, gp96 and herbimycin A, binding buffer without calcium: 20 mM HEPES pH 7.5, 100 mM KCl, 1 mM DTT, 1 mM MgAcetate, 42 phage-expressed peptides sequenced.
The mark [7] stands for this setting: Table XIV, gp96 in the presence of herbimycin A, binding buffer with ATP: 20 mM HEPES pH 7.5, 100 mM KCl, 1 mM CaCl2, 1 mM MgAcetate, 1 mM ATP.
Where [8] appears, read: Table XVI, binding buffer with AMP-PNP instead of ATP: 20 mM HEPES pH 7.5, 100 mM KCl, 1 mM CaCl2, 1 mM MgAcetate, 1 mM AMP-PNP.

Read-outs that look alike come from different tables or passages of the source. Where a SMILES comes first, the peptide text is derived from it.

With 17-allylamino herbimycin, the activity result in data set [1] is given as “more active than 19-allylamino herbimycin”.

For `CC[C@H](C)[C@H](NC(=O)[C@@H](NC(=O)[C@@H](N)CO)[C@@H](C)CC)C(=O)N[C@@H](CC(N)=O)C(=O)N[C@@H](Cc1ccccc1)C(=O)N[C@@H](CCC(=O)O)C(=O)N[C@@H](CCCCN)C(=O)N[C@@H](CC(C)C)C(=O)NCC(=O)N[C@@H](CO)C(=O)NCC(=O)N[C@@H](Cc1c[nH]cn1)C(=O)N[C@@H](Cc1c[nH]c2ccccc12)C(=O)N[C@@H](CC(=O)O)C(=O)N[C@@H](Cc1ccccc1)C(=O)N[C@@H](C)C(=O)N[C@@H](Cc1c[nH]c2ccccc12)C(=O)N1CCC[C@H]1C(=O)N[C@@H](Cc1c[nH]c2ccccc12)C(=O)O` [OVA-BiP] (H-SIINFEKLGSGHWDFAWPW-OH), in data set [2], the “OVA-specific cytotoxic immune response” value is “significant anti-OVA immune response”.

Regarding `N[C@@H](CO)C(=O)O` [Ser], the “% actual (amino acid frequency in sequenced gp96-binding phage-expressed heptapeptides)” value (“% actual” for short) in data set [3] (setting [6]) was 10.88%; in data set [3] (setting [7]), 16.0%; in data set [3] (setting [8]), 4.28%. Also, the “% expected (amino acid frequency)” value in data set [4] (Table XII), in data set [4] (Table XIV) and in data set [4] (Table XVI) was 11.4% throughout.

`C[C@@H](O)[C@H](N)C(=O)O` [Thr]: the “% actual” value in data set [3] (setting [6]) came to 13.95%; in data set [3] (setting [7]), 8.9%; in data set [3] (setting [8]), 10%. Further, the “% expected (amino acid frequency)” value in data set [4] (Table XII), in data set [4] (Table XIV) and in data set [4] (Table XVI) was 9.3% each time.

`N[C@@H](Cc1c[nH]c2ccccc12)C(=O)O` [Trp]: the entries for the “% actual” value in data set [3] (setting [6]), in data set [3] (setting [7]) and in data set [3] (setting [8]) were 1.36%, 3.57% and 2.85%, respectively. The “% expected (amino acid frequency)” value in data set [4] (Table XII), in data set [4] (Table XIV) and in data set [4] (Table XVI) was 1% throughout.

For the compound `N[C@@H](Cc1ccc(O)cc1)C(=O)O` [Tyr], the figures for the “% actual” value in data set [3] (setting [6]), in data set [3] (setting [7]) and in data set [3] (setting [8]) were 4.76%, 7.1% and 4.28%, respectively. For the same compound, the “% expected (amino acid frequency)” value in data set [4] (Table XII), in data set [4] (Table XIV) and in data set [4] (Table XVI) was 2.9% each time.

Consider `CC(C)[C@H](N)C(=O)O` [Val], for which the “% actual” value in data set [3] (setting [6]) worked out at 4.08%; in data set [3] (setting [7]), 5.3%; in data set [3] (setting [8]), 8.5%. In addition, the “% expected (amino acid frequency)” value in data set [4] (Table XII), in data set [4] (Table XIV) and in data set [4] (Table XVI) was 4.3% throughout.

On to “Ser Ile Ile Asn Phe Glu Lys Leu (SIINFEKL; printed: Ser Ile Ile Asn Phe Glu Lys Leu) [OVA peptide]”, for which the tumor-free animals entry in data set [5] is listed as “no animals were tumor-free”.

The values are drawn from patent US20030194409A1, “Conjugate heat shock protein-binding peptides” (priority 2002, published 2003).
